Data reported in PubChem BioAssay (NCI).
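The compound was tested at five concentrations on cells cultured in 96-well plates, with a 48-hour exposure period. GI50 is the concentration that inhibits growth by half. Definition used: TGI = concentration required for complete inhibition of growth.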

Columns and labels:
Assay in all cases: NCI anticancer screen, dose series, 48 h
[1] = test system: SN12C renal
[2] = test system: SF-539 CNS
[3] = test system: SK-MEL-28 melanoma
[4] = test system: EKVX NSCLC
[5] = test system: NCI-H522 lung
[6] = test system: NCI-H23 lung
[7] = test system: UO-31 renal
[8] = test system: HCT-15 colon
[9] = test system: COLO 205 colon
[10] = test system: UACC-62 melanoma
[11] = test system: OVCAR-8 ovarian
[12] = test system: SF-295 CNS
[13] = test system: SK-MEL-2 melanoma
[14] = test system: SF-268 CNS
[15] = test system: U251 CNS
[16] = test system: SW-620 colon
[17] = test system: HL-60(TB) leukemia
[18] = test system: A549 NSCLC
[19] = test system: HCC-2998 colon
[20] = test system: RXF 393 renal
[21] = test system: 786-0 renal
[22] = test system: MOLT-4 leukemia
[23] = test system: ACHN renal
[24] = test system: KM12 colon
[25] = test system: HCT-116 colon
[26] = test system: K-562 leukemia
[27] = test system: HOP-62 NSCLC
[28] = test system: OVCAR-3 ovarian
[29] = test system: SK-OV-3 ovarian
[30] = test system: SNB-75 CNS
[31] = test system: SR leukemia
[32] = test system: HS 578T breast
[33] = test system: T-47D breast
[34] = test system: OVCAR-5 ovarian
[35] = test system: PC-3 prostate
[36] = test system: NCI-H460 lung
[37] = test system: HT29 colon
[38] = test system: A498 renal
[39] = test system: UACC-257 melanoma
[40] = test system: HOP-92 NSCLC
[41] = test system: MDA-MB-231 breast
[42] = test system: IGROV1 ovarian
[43] = test system: M14 melanoma
[44] = test system: MDA-MB-435
[45] = test system: DU-145 prostate
[46] = test system: SK-MEL-5 melanoma
[47] = test system: NCI/ADR-RES ovarian
[48] = test system: CAKI-1 renal
[49] = test system: TK-10 renal
[50] = test system: NCI-H226 lung
[51] = test system: OVCAR-4 ovarian
[52] = test system: CCRF-CEM leukemia
[53] = test system: BT-549 breast
[54] = test system: MALME-3M melanoma
[55] = test system: SNB-19 CNS

## CC(=O)Nc1cccc(Nc2nc(N[C@@H](C)c3ccccc3)c3ccccc3n2)c1
[1]
  GI50: 608 nM
  TGI: 2860 nM
[2]
  GI50: 318 nM
  TGI: 1140 nM
[3]
  GI50: 1000 nM
  TGI: 2430 nM
[4]
  GI50: 656 nM
  TGI: 16500 nM
[5]
  GI50: 322 nM
  TGI: 2180 nM
[6]
  GI50: 387 nM
  TGI: 2690 nM
[7]
  GI50: 697 nM
  TGI: 2330 nM
[8]
  GI50: 355 nM
  TGI: 1910 nM
[9]
  GI50: 625 nM
  TGI: 4340 nM
[10]
  GI50: 380 nM
  TGI: 1930 nM
[11]
  TGI: 9300 nM
[12]
  GI50: 377 nM
  TGI: 1560 nM
[13]
  GI50: 832 nM
  TGI: 6010 nM
[14]
  GI50: 571 nM
  TGI: 3280 nM
[15]
  GI50: 525 nM
  TGI: 2900 nM
[16]
  GI50: 425 nM
  TGI: 5280 nM
[17]
  GI50: 303 nM
  TGI: 868 nM
[18]
  GI50: 601 nM
  TGI: 5970 nM
[19]
  GI50: 982 nM
  TGI: 2530 nM
[20]
  GI50: 154 nM
  TGI: 581 nM
[21]
  GI50: 630 nM
  TGI: 4280 nM
[22]
  GI50: 491 nM
  TGI: 6820 nM
[23]
  GI50: 672 nM
  TGI: 6900 nM
[24]
  GI50: 439 nM
  TGI: 6450 nM
[25]
  GI50: 459 nM
  TGI: 1940 nM
[26]
  GI50: 270 nM
  TGI: > 100000 nM
[27]
  GI50: 808 nM
  TGI: 7080 nM
[28]
  GI50: 359 nM
  TGI: 1540 nM
[29]
  GI50: 679 nM
  TGI: 15200 nM
[30]
  GI50: 194 nM
  TGI: 820 nM
[31]
  GI50: 253 nM
  TGI: 2580 nM
[32]
  GI50: 361 nM
  TGI: 2510 nM
[33]
  GI50: 512 nM
  TGI: 6470 nM
[34]
  GI50: 1390 nM
  TGI: 11600 nM
[35]
  GI50: 408 nM
  TGI: 11400 nM
[36]
  GI50: 356 nM
  TGI: 2100 nM
[37]
  GI50: 362 nM
  TGI: 5050 nM
[38]
  GI50: 278 nM
  TGI: 1500 nM
[39]
  GI50: 1180 nM
  TGI: 3430 nM
[40]
  GI50: 373 nM
  TGI: 4940 nM
[41]
  GI50: 942 nM
  TGI: 3600 nM
[42]
  GI50: 507 nM
  TGI: 2950 nM
[43]
  GI50: 401 nM
  TGI: 1610 nM
[44]
  GI50: 169 nM
  TGI: 419 nM
[45]
  GI50: 651 nM
  TGI: 6400 nM
[46]
  GI50: 292 nM
  TGI: 1070 nM
[47]
  GI50: 464 nM
  TGI: 4750 nM
[48]
  GI50: 374 nM
  TGI: 2770 nM
[49]
  GI50: 6690 nM
  TGI: 21200 nM
[50]
  GI50: 738 nM
  TGI: 21600 nM
[51]
  GI50: 784 nM
  TGI: 11800 nM
[52]
  GI50: 372 nM
[53]
  GI50: 3620 nM
  TGI: 18700 nM
[54]
  GI50: 470 nM
  TGI: 1900 nM
[55]
  GI50: 500 nM
  TGI: 12600 nM
